Reference: patent US9695155B2, “Herbicidal substituted pyrimidinyloxy benzene compounds” (E. I. DU PONT DE NEMOURS AND COMPANY, priority 2013, dated 2017)

Assays:
[1] = tested on: barnyardgrass; assay: Test B flooded paddy test; type: in vivo, Echinochloa crus-galli; settings: Flood, 250 g ai/ha; 0 to 100 scale where 0 is no effect and 100 is complete control
Summary of the method: (§1)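 Compound added straight to paddy water, with pots kept flooded 3 cm above soil, on plants grown to the 2-leaf stage. Visual scoring 0-100 (100 = complete control) against untreated controls after 13 to 15 greenhouse days.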

[2] = tested on: pigweed; assay: Test A postemergence; type: in vivo, Amaranthus retroflexus; settings: 0 to 100 scale where 0 is no effect and 100 is complete control; for Pigweed plant response rating: 125 g ai/ha; for Plant response rating, Pigweed: 500 g ai/ha
Summary of the method: (§2)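 Greenhouse pot test, loam/sand soil. Formulation: non-phytotoxic solvent mix plus surfactant. Pre: directed spray onto soil after sowing. Post: plants at 1–2 leaf, 2–10 cm. Rated visually vs untreated controls at ~10 d, 0 (no effect) to 100 (complete control).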

[3] = tested on: wheat; assay: Test A preemergence; type: in vivo, Triticum aestivum; settings: for Wheat plant response rating (0 to 100 scale): 125 g ai/ha; for Wheat plant response rating: 500 g ai/ha, 0 to 100 scale where 0 is no effect and 100 is complete control
Summary of the method: as §2

[4] = tested on: pigweed; assay: Test A preemergence; type: in vivo, Amaranthus retroflexus; settings: for Pigweed plant response rating (0 to 100 scale): 125 g ai/ha; for Pigweed plant response rating: 500 g ai/ha, 0 to 100 scale where 0 is no effect and 100 is complete control
Summary of the method: as §2

[5] = tested on: corn; assay: Test A preemergence; type: in vivo, Zea mays; settings: 0 to 100 scale where 0 is no effect and 100 is complete control; for Plant response rating, Corn: 125 g ai/ha; for Corn plant response rating: 500 g ai/ha
Summary of the method: as §2

[6] = tested on: morningglory; assay: Test A postemergence; type: in vivo, Ipomoea spp.; settings: 0 to 100 scale where 0 is no effect and 100 is complete control; for Morningglory plant response rating: 125 g ai/ha; for Plant response rating, Morningglory: 500 g ai/ha
Summary of the method: as §2

[7] = tested on: giant foxtail; assay: Test A postemergence; type: in vivo, Setaria faberii; settings: 0 to 100 scale where 0 is no effect and 100 is complete control; for Foxtail, Giant plant response rating: 125 g ai/ha; for Plant response rating, Foxtail, Giant: 500 g ai/ha
Summary of the method: as §2

[8] = tested on: barnyardgrass; assay: Test A postemergence; type: in vivo, Echinochloa crus-galli; settings: 0 to 100 scale where 0 is no effect and 100 is complete control; for Barnyardgrass plant response rating: 125 g ai/ha; for Plant response rating, Barnyardgrass: 500 g ai/ha
Summary of the method: as §2

[9] = tested on: velvetleaf; assay: Test A preemergence; type: in vivo, Abutilon theophrasti; settings: for Velvetleaf plant response rating (0 to 100 scale): 125 g ai/ha; for Velvetleaf plant response rating: 500 g ai/ha, 0 to 100 scale where 0 is no effect and 100 is complete control
Summary of the method: as §2

[10] = tested on: giant foxtail; assay: Test A preemergence; type: in vivo, Setaria faberii; settings: 0 to 100 scale where 0 is no effect and 100 is complete control; for Plant response rating, Foxtail, Giant: 125 g ai/ha; for Foxtail, Giant plant response rating: 500 g ai/ha
Summary of the method: as §2

[11] = tested on: velvetleaf; assay: Test A postemergence; type: in vivo, Abutilon theophrasti; settings: 0 to 100 scale where 0 is no effect and 100 is complete control; for Velvetleaf plant response rating: 125 g ai/ha; for Plant response rating, Velvetleaf: 500 g ai/ha
Summary of the method: as §2

[12] = tested on: rice; assay: Test B flooded paddy test; type: in vivo, Oryza sativa; settings: Flood, 250 g ai/ha; 0 to 100 scale where 0 is no effect and 100 is complete control
Summary of the method: as §1

[13] = tested on: morningglory; assay: Test A preemergence; type: in vivo, Ipomoea spp.; settings: for Morningglory plant response rating (0 to 100 scale): 125 g ai/ha; for Morningglory plant response rating: 500 g ai/ha, 0 to 100 scale where 0 is no effect and 100 is complete control
Summary of the method: as §2

[14] = tested on: corn; assay: Test A postemergence; type: in vivo, Zea mays; settings: 0 to 100 scale where 0 is no effect and 100 is complete control; for Corn plant response rating: 125 g ai/ha; for Plant response rating, Corn: 500 g ai/ha
Summary of the method: as §2

[15] = tested on: large (Lg) crabgrass; assay: Test A postemergence; type: in vivo, Digitaria sanguinalis; settings: 0 to 100 scale where 0 is no effect and 100 is complete control; for Crabgrass, Large plant response rating: 125 g ai/ha; for Plant response rating, Crabgrass, Large: 500 g ai/ha
Summary of the method: as §2

[16] = tested on: Heteranthera limosa; assay: Test B flooded paddy test; type: in vivo; settings: Flood, 250 g ai/ha; 0 to 100 scale where 0 is no effect and 100 is complete control
Summary of the method: as §1

[17] = tested on: barnyardgrass; assay: Test A preemergence; type: in vivo, Echinochloa crus-galli; settings: 0 to 100 scale where 0 is no effect and 100 is complete control; for Plant response rating, Barnyardgrass: 125 g ai/ha; for Barnyardgrass plant response rating: 500 g ai/ha
Summary of the method: as §2

[18] = tested on: sedge, umbrella; assay: Test B flooded paddy test; type: in vivo, Cyperus difformis; settings: Flood, 250 g ai/ha; 0 to 100 scale where 0 is no effect and 100 is complete control
Summary of the method: as §1

[19] = tested on: large (Lg) crabgrass; assay: Test A preemergence; type: in vivo, Digitaria sanguinalis; settings: 0 to 100 scale where 0 is no effect and 100 is complete control; for Plant response rating, Crabgrass, Large: 125 g ai/ha; for Crabgrass, Large plant response rating: 500 g ai/ha
Summary of the method: as §2

[20] = tested on: wheat; assay: Test A postemergence; type: in vivo, Triticum aestivum; settings: 0 to 100 scale where 0 is no effect and 100 is complete control; for Wheat plant response rating: 125 g ai/ha; for Plant response rating, Wheat: 500 g ai/ha
Summary of the method: as §2

Row | Structure (SMILES) | Plant response rating, Barnyardgrass [1] | Pigweed plant response rating [2] | Plant response rating, Pigweed [2] | Wheat plant response rating (0 to 100 scale) [3] | Wheat plant response rating [3] | Pigweed plant response rating (0 to 100 scale) [4] | Pigweed plant response rating [4] | Plant response rating, Corn [5] | Corn plant response rating [5] | Morningglory plant response rating [6] | Plant response rating, Morningglory [6] | Foxtail, Giant plant response rating [7] | Plant response rating, Foxtail, Giant [7] | Barnyardgrass plant response rating [8] | Plant response rating, Barnyardgrass [8] | Velvetleaf plant response rating (0 to 100 scale) [9] | Velvetleaf plant response rating [9] | Plant response rating, Foxtail, Giant [10] | Foxtail, Giant plant response rating [10] | Velvetleaf plant response rating [11] | also measured
1 | O=Cc1cccc(Oc2ncc(F)cn2)c1-n1cc(C(F)(F)F)cn1 [Compound 162] | 0 | 30 | 70 | 0 | 0 | 100 | 100 | 0 | 0 | 0 | 10 | 0 | 0 | 0 | 10 | 10 | 50 | 0 | 0 | 10 | Plant response rating, Velvetleaf [11]: 50; Plant response rating, Rice [12]: 0; Morningglory plant response rating (0 to 100 scale) [13]: 0; Morningglory plant response rating [13]: 0; Corn plant response rating [14]: 0; Plant response rating, Corn [14]: 10; Crabgrass, Large plant response rating [15]: 0; Plant response rating, Crabgrass, Large [15]: 10; Plant response rating, Ducksalad [16]: 35; Plant response rating, Barnyardgrass [17]: 10; Barnyardgrass plant response rating [17]: 50; Plant response rating, Sedge, Umbrella [18]: 40; Plant response rating, Crabgrass, Large [19]: 0; Crabgrass, Large plant response rating [19]: 10; Wheat plant response rating [20]: 0; Plant response rating, Wheat [20]: 0
2 | N#Cc1cccc(Oc2ncc(Br)cn2)c1-n1cccn1 [Compound 165] | 0 | 30 | 80 | 0 | 0 | 60 | 90 | 0 | 0 | 10 | 20 | 10 | 20 | 0 | 0 | 10 | 20 | 20 | 90 | 10 | Plant response rating, Velvetleaf [11]: 30; Plant response rating, Rice [12]: 0; Morningglory plant response rating (0 to 100 scale) [13]: 0; Corn plant response rating [14]: 0; Plant response rating, Corn [14]: 0; Crabgrass, Large plant response rating [15]: 0; Plant response rating, Crabgrass, Large [15]: 10; Plant response rating, Ducksalad [16]: 0; Plant response rating, Barnyardgrass [17]: 0; Barnyardgrass plant response rating [17]: 20; Plant response rating, Sedge, Umbrella [18]: 0; Plant response rating, Crabgrass, Large [19]: 50; Crabgrass, Large plant response rating [19]: 90; Wheat plant response rating [20]: 0; Plant response rating, Wheat [20]: 0
3 | FC(F)(F)c1cnn(-c2c(Cl)cccc2Oc2ncc(Br)cn2)c1 [Compound 168] | 0 | 100 | 100 | 20 | 20 | 100 | 100 | 0 | 20 | 50 | 100 | 70 | 90 | 50 | 90 | 70 | 90 | 100 | 100 | 90 | Plant response rating, Velvetleaf [11]: 100; Plant response rating, Rice [12]: 30; Morningglory plant response rating (0 to 100 scale) [13]: 20; Morningglory plant response rating [13]: 80; Corn plant response rating [14]: 20; Plant response rating, Corn [14]: 30; Crabgrass, Large plant response rating [15]: 70; Plant response rating, Crabgrass, Large [15]: 90; Plant response rating, Ducksalad [16]: 90; Plant response rating, Barnyardgrass [17]: 50; Barnyardgrass plant response rating [17]: 80; Plant response rating, Sedge, Umbrella [18]: 80; Plant response rating, Crabgrass, Large [19]: 100; Crabgrass, Large plant response rating [19]: 100; Wheat plant response rating [20]: 10; Plant response rating, Wheat [20]: 50
4 | O=Cc1cccc(Oc2ncc(Cl)cn2)c1-n1cc(C(F)(F)F)cn1 [Compound 171] | 0 | 100 | 100 | 0 | 0 | 90 | 100 | 0 | 0 | 0 | 0 | 0 | 0 | 0 | 0 | 30 | 70 | 0 | 0 | 40 | Plant response rating, Velvetleaf [11]: 70; Plant response rating, Rice [12]: 0; Morningglory plant response rating (0 to 100 scale) [13]: 0; Morningglory plant response rating [13]: 0; Corn plant response rating [14]: 0; Plant response rating, Corn [14]: 0; Crabgrass, Large plant response rating [15]: 0; Plant response rating, Crabgrass, Large [15]: 0; Plant response rating, Ducksalad [16]: 0; Plant response rating, Barnyardgrass [17]: 20; Barnyardgrass plant response rating [17]: 60; Plant response rating, Sedge, Umbrella [18]: 0; Plant response rating, Crabgrass, Large [19]: 0; Crabgrass, Large plant response rating [19]: 0; Wheat plant response rating [20]: 0; Plant response rating, Wheat [20]: 0
5 | FC(F)c1cccc(Oc2ncc(I)cn2)c1-n1cc(Br)cn1 [Compound 173] | 0 | 100 | 100 | 0 | 0 | 80 | 100 | 0 | 0 | 0 | 0 | 10 | 50 | 0 | 30 | 0 | 0 | 50 | 70 | 60 | Plant response rating, Velvetleaf [11]: 70; Plant response rating, Rice [12]: 0; Morningglory plant response rating (0 to 100 scale) [13]: 0; Morningglory plant response rating [13]: 0; Corn plant response rating [14]: 0; Plant response rating, Corn [14]: 20; Crabgrass, Large plant response rating [15]: 0; Plant response rating, Crabgrass, Large [15]: 40; Plant response rating, Ducksalad [16]: 0; Plant response rating, Barnyardgrass [17]: 0; Barnyardgrass plant response rating [17]: 30; Plant response rating, Sedge, Umbrella [18]: 0; Plant response rating, Crabgrass, Large [19]: 20; Crabgrass, Large plant response rating [19]: 80; Wheat plant response rating [20]: 0; Plant response rating, Wheat [20]: 0
